In PubChem BioAssay AID306 (DTP/NCI, 2004):
Values joined by “and” are separate entries in the source; they are usually repeats but may differ in a detail not shown here. Equal values may be shown once. Toxic doses and inconclusive results are not listed.

Test system: BDF1 mice, L1210 Methyl-GAG-resistant leukemia, survival T/C
Experiment: NCI In Vivo Anticancer Drug Screen. Data for tumor model L1210 Leukemia resistant to Methyl-GAG; NSC 32946 (subcutaneous) in B6D2F1 (BDF1) mice
Conditions: endpoint: mean survival time, higher = longer survival
Procedure: The antitumor activity of compounds was measured in mice bearing transplantable tumors. Survival or tumor size were measured and the results are expressed as the measurement made in the treated group (T) divided by the measurement made in the vehicle treated control group (C). The tumor model used in this assay is L1210 Leukemia resistant to Methyl-GAG; NSC 32946 (subcutaneous) in B6D2F1 (BDF1) mice

[1] = dose: 12.5 mg/kg/injection, schedule: Q01DX Z (ip), vehicle: carboxymethylcellulose (CMC)
[2] = dose: 25.0 mg/kg/injection, schedule: Q01DX Z (ip), vehicle: carboxymethylcellulose (CMC)
[3] = dose: 50.0 mg/kg/injection, schedule: Q01DX Z (ip), vehicle: carboxymethylcellulose (CMC)
[4] = dose: 100.0 mg/kg/injection, schedule: Q01DX Z (ip), vehicle: carboxymethylcellulose (CMC)

SMILES: CN(C)c1nc(N(C)C)nc(N(C)C)n1
- T/C (dose: 62.5 mg/kg/injection, schedule: Q01DX Z (ip), vehicle: carboxymethylcellulose (CMC)): 100 % of control
- T/C (dose: 125.0 mg/kg/injection, schedule: Q01DX Z (ip), vehicle: carboxymethylcellulose (CMC)): 95 % of control
- T/C (dose: 250.0 mg/kg/injection, schedule: Q01DX Z (ip), vehicle: carboxymethylcellulose (CMC)): 100 % of control
- T/C (dose: 500.0 mg/kg/injection, schedule: Q01DX Z (ip), vehicle: carboxymethylcellulose (CMC)): 100 % of control
- T/C (dose: 1000.0 mg/kg/injection, schedule: Q01DX Z (ip), vehicle: methylcellulose (MC)): 98 % of control

SMILES: CCN(CC)CCNc1ccc(C)c2sc3ccccc3c(=O)c12
- T/C (dose: 1.56 mg/kg/injection, schedule: Q01DX Z (ip), vehicle: methylcellulose (MC)): 97 % of control
- T/C (dose: 6.25 mg/kg/injection, schedule: Q01DX Z (ip), vehicle: methylcellulose (MC)): 102 % of control
- T/C (dose: 12.5 mg/kg/injection, schedule: Q01DX Z (ip), vehicle: methylcellulose (MC)): 104 % of control
- T/C (dose: 25.0 mg/kg/injection, schedule: Q01DX Z (ip), vehicle: methylcellulose (MC)): 103 % of control and 113 % of control
- T/C (dose: 50.0 mg/kg/injection, schedule: Q01DX Z (ip), vehicle: methylcellulose (MC)): 119 % of control
- T/C (dose: 100.0 mg/kg/injection, schedule: Q01DX Z (ip), vehicle: methylcellulose (MC)): 151 % of control

SMILES: CC(=O)O[C@]1(C(C)=O)CC[C@H]2[C@@H]3C[C@H](C)C4=CC(=O)C=C[C@]4(C)[C@@]3(F)[C@@H](O)C[C@@]21C
- T/C (dose: 10.0 mg/kg/injection, schedule: Q01DX Z (sc), vehicle: steriod suspending solution): 102 % of control
- T/C (dose: 20.0 mg/kg/injection, schedule: Q01DX Z (sc), vehicle: steriod suspending solution): 105 % of control
- T/C (dose: 40.0 mg/kg/injection, schedule: Q01DX Z (sc), vehicle: steriod suspending solution): 121 % of control
- T/C (dose: 80.0 mg/kg/injection, schedule: Q01DX Z (sc), vehicle: steriod suspending solution): 114 % of control
- T/C (dose: 160.0 mg/kg/injection, schedule: Q01DX Z (sc), vehicle: steriod suspending solution): 121 % of control
- T/C (dose: 320.0 mg/kg/injection, schedule: Q01DX Z (sc), vehicle: steriod suspending solution): 115 % of control

SMILES: S=P(N1CCOCC1)(N1CC1)N1CC1
- T/C [1]: 104 % of control
- T/C [2]: 102 % of control

SMILES: Nc1nc(=S)c2ncn(C3OC(CO)C(O)C3O)c2[nH]1 (centres undefined)
- T/C (dose: 0.16 mg/kg/injection, schedule: Q01DX Z (ip), vehicle: carboxymethylcellulose (CMC)): 92 % of control
- T/C (dose: 0.31 mg/kg/injection, schedule: Q01DX Z (ip), vehicle: carboxymethylcellulose (CMC)): 91 % of control
- T/C (dose: 0.62 mg/kg/injection, schedule: Q01DX Z (ip), vehicle: carboxymethylcellulose (CMC)): 102 % of control
- T/C (dose: 1.25 mg/kg/injection, schedule: Q01DX Z (ip), vehicle: carboxymethylcellulose (CMC)): 111 % of control
- T/C (dose: 2.5 mg/kg/injection, schedule: Q01DX Z (ip), vehicle: carboxymethylcellulose (CMC)): 152 % of control

SMILES: CCCSc1ncnc2nc[nH]c12
- T/C (dose: 6.3 mg/kg/injection, schedule: Q01DX Z (ip), vehicle: carboxymethylcellulose (CMC)): 107 % of control
- T/C [1]: 110 % of control
- T/C [2]: 110 % of control and 118 % of control
- T/C [3]: 117 % of control and 123 % of control
- T/C [4]: 110 % of control

SMILES: C[C@@H]1C[C@H]2CC[C@H](O2)[C@H](C)C(=O)O[C@@H](C)C[C@@H]2CC[C@@H](O2)[C@@H](C)C(=O)O[C@H](C)C[C@H]2CC[C@H](O2)[C@H](C)C(=O)O[C@@H](C)C[C@@H]2CC[C@@H](O2)[C@@H](C)C(=O)O1
- T/C [2]: 97 % of control
- T/C [3]: 91 % of control
- T/C [4]: 91 % of control
- T/C (dose: 200.0 mg/kg/injection, schedule: Q01DX Z (ip), vehicle: carboxymethylcellulose (CMC)): 97 % of control

SMILES: CS(=O)(=O)OCC(O)C(O)COS(C)(=O)=O (centres undefined)
- T/C (dose: 99.0 mg/kg/injection, schedule: Q01DX Z (ip), vehicle: saline): 101 % of control
- T/C (dose: 188.0 mg/kg/injection, schedule: Q01DX Z (ip), vehicle: saline): 101 % of control
- T/C (dose: 375.0 mg/kg/injection, schedule: Q01DX Z (ip), vehicle: saline): 101 % of control
- T/C (dose: 750.0 mg/kg/injection, schedule: Q01DX Z (ip), vehicle: saline): 117 % of control and 120 % of control
- T/C (dose: 1500.0 mg/kg/injection, schedule: Q01DX Z (ip), vehicle: saline): 109 % of control and 120 % of control
- T/C (dose: 3000.0 mg/kg/injection, schedule: Q01DX Z (ip), vehicle: saline): 112 % of control
